Source: patent US12310975B2, “Modulators of BCL6 proteolysis and associated methods of use” (Arvinas Operations, Inc., priority 2019, dated 2025)

Molecular target: BCL6 (Homo sapiens (Human), UniProt P41182)
Assay: Immunofluorescence high content imaging of BCL6 degradation in T47D cells
Type: cell-based
Settings: class symbols A-D, read-out: EC50 (nM)*
Description: Immunofluorescence Protocol for High Cotent Imaging of BCL6
T47D cells were seeded in 100 μl volume of RPMI1640-10% FBS in a 96-well black/clear bottom plates for adherent lines (Corning #3904).
Day 1. T47D breast cancer epithelial cells were seeded at a density so that confluence is ˜70-90% at endpoint. Cells were seeded at 7K/0.1 ml/well the morning prior to the addition of exemplary bifunctional degradation compounds.
Day 2. Prepare an 11 point 3-fold serial dilution of exemplary bifunctional compound in DMSO and aliquot an appropriate volume to cell growth media to generate a 2× final concentration of exemplary bifunctional compound. Add an equal volume (0.1 ml) of 2× exemplary bifunctional compound/media mix to previously plated cells, for a final top concentration in aqueous cell growth media of 0.1 or 1 μM. Incubate for 3 days at 37° C., 5% CO2.
Day 5 Immunofluorescence. Discard cell media. Wash wells with 200 μl of room temperature phosphate-buffered saline (PBS). Prepared 4% paraformaldehyde (PFA) from 16% PFA (Electron Microscopy Sciences #15710) using 1×PBS. Fifty μl of 4% PF was added to each well and incubate for 15 minutes at room temperature to fix the cells. The PFA was aspirated and the cells washed twice with PBS (200 μl)).
Prepared 0.1% Triton X-100 in PBS using 10% triton X-100 stock. The cells were permeabilized by adding 100 ul of the 0.1% Triton X-100 in PBS to each well to permeabilize cells and incubating at room temperature for 15 minutes. Cells were washed twice with PBS.
Prepared 3% BSA/PBS (from Thermofisher #37515 Blocker BSA in TBS, 10%), and 100 ul was added to each well. The cells were incubated for at least 1 hour at room temperature.
Prepared 1% BSA/PBS using Blocker BSA/PBS, and the 3% BSA/PBS removed from the wells.
For no primary antibody controls, 50 μl 1% BSA/PBS was added.
Primary antibody (BCL6 Rb Ab, CST-14895, Cell Signaling) was diluted 1:300 in 1% BSA/PBS using Blocker BSA/PBS.
Fifty μl of primary antibody added to all remaining wells (i.e., all wells other than the primary antibody controls) and the cells were incubated overnight at 4° C. with slow orbital movement.
Day 6. Contents of the wells was removed and the cells washed four times with 200 ul PBS. 1% BSA/PBS was prepared using Blocker BSA in PBS.
Diluted secondary antibody goat anti-Rb IgG Alexa-488 1:1000, and cell mask-Alexa-647 1:3000 in 1% BSA/PBS in the same mix. Add 50 μl to each well and incubate at room temperature for 1 hour in the dark.
Cells were washed three times with 200 ul PBS, and then incubated for 10 minutes with 100 ul Hoechst dye at 1 μg/mL (20 mM stock) to stain cell nuclei. Wells were then washed with 200 μl PBS, and 100 ul of PBS was added to each well and the plate covered plate with a plastic opaque cover. Plates were stored at 4° C. and covered in aluminum foil until imaged.
Plates were equilibrated to room temperature prior to reading. The bottom of the plate was wiped with 70% isopropanol immediately prior to imaging.
10×, 4 fields/well, include Top hat smoothing in the analysis protocol.

| SMILES | DC50 [nM] |
| --- | --- |
| CNC(=O)COc1cc2cc(Nc3nc(N4CCC(OCCOCCNc5cccc6c5C(=O)N(C5CCC(=O)NC5=O)C6=O)CC4)ncc3Cl)ccc2n(C)c1=O (centres unmarked) [compound 75, 2-((6-((5-chloro-2-(4-(2-(2-((2-(2,6-dioxopiperidin-3-yl)-1,3-dioxoisoindolin-4-yl)amino)ethoxy)ethoxy)piperidin-1-yl)pyrimidin-4-yl)amino)-1-methyl-2-oxo-1,2-dihydroquinolin-3-yl)oxy)-N-methylacetamide] | 50 to 100 |
| CN1C(=O)CCc2cc(Nc3cc(OC4CCN(C(=O)COCCOc5ccc6c(c5)C(=O)N(C5CCC(=O)NC5=O)C6=O)CC4)c([N+](=O)[O-])cc3Cl)ccc21 (centres unmarked) [compound 76, 5-(2-(2-(4-(4-chloro-5-((1-methyl-2-oxo-1,2,3,4-tetrahydroquinolin-6-yl)amino)-2-nitrophenoxy)piperidin-1-yl)-2-oxoethoxy)ethoxy)-2-(2,6-dioxopiperidin-3-yl)isoindoline-1,3-dione] | > 100 |
| CN1C(=O)CCc2cc(Nc3cc(N4CCC(CN5CCN(c6ccc7c(c6)C(=O)N(C6CCC(=O)NC6=O)C7=O)CC5)CC4)c([N+](=O)[O-])cc3Cl)ccc21 (centres unmarked) [compound 77, 5-(4-((1-(4-chloro-5-((1-methyl-2-oxo-1,2,3,4-tetrahydroquinolin-6-yl)amino)-2-nitrophenyl)piperidin-4-yl)methyl)piperazin-1-yl)-2-(2,6-dioxopiperidin-3-yl)isoindoline-1,3-dione] | > 100 |
| CNC(=O)COc1cc2cc(Nc3nc(N4CCC(OCCOCCOCCOCCOCC(=O)N[C@H](C(=O)N5C[C@H](O)C[C@H]5C(=O)NCc5ccc(-c6scnc6C)cc5)C(C)(C)C)CC4)ncc3Cl)ccc2n(C)c1=O [compound 78, (2S,4R)-1-((S)-2-(tert-butyl)-17-((1-(5-chloro-4-((1-methyl-3-(2-(methylamino)-2-oxoethoxy)-2-oxo-1,2-dihydroquinolin-6-yl)amino)pyrimidin-2-yl)piperidin-4-yl)oxy)-4-oxo-6,9,12,15-tetraoxa-3-azaheptadecanoyl)-4-hydroxy-N-(4-(4-methylthiazol-5-yl)benzyl)pyrrolidine-2-carboxamide] | 10 to 50 |
| CN1C(=O)CCc2cc(Nc3cc(OC4CCN(C5CCN(c6ccc7c(c6)C(=O)N(C6CCC(=O)NC6=O)C7=O)CC5)CC4)c([N+](=O)[O-])cc3Cl)ccc21 (centres unmarked) [compound 79, 5-(4-(4-chloro-5-((1-methyl-2-oxo-1,2,3,4-tetrahydroquinolin-6-yl)amino)-2-nitrophenoxy)-[1,4′-bipiperidin]-1′-yl)-2-(2,6-dioxopiperidin-3-yl)isoindoline-1,3-dione] | > 100 |
| CNC(=O)COc1cc2cc(Nc3nc(N4CCC(OCCNc5cccc6c5C(=O)N(C5CCC(=O)NC5=O)C6=O)CC4)ncc3Cl)ccc2n(C)c1=O (centres unmarked) [compound 80, 2-((6-((5-chloro-2-(4-(2-((2-(2,6-dioxopiperidin-3-yl)-1,3-dioxoisoindolin-4-yl)amino)ethoxy)piperidin-1-yl)pyrimidin-4-yl)amino)-1-methyl-2-oxo-1,2-dihydroquinolin-3-yl)oxy)-N-methylacetamide] | 50 to 100 |
| CNC(=O)COc1cc2cc(Nc3nc(N4CCC(OCCOCCOCCOCCOCCOCCNc5cccc6c5C(=O)N(C5CCC(=O)NC5=O)C6=O)CC4)ncc3Cl)ccc2n(C)c1=O (centres unmarked) [compound 81, 2-((6-((5-chloro-2-(4-((17-((2-(2,6-dioxopiperidin-3-yl)-1,3-dioxoisoindolin-4-yl)amino)-3,6,9,12,15-pentaoxaheptadecyl)oxy)piperidin-1-yl)pyrimidin-4-yl)amino)-1-methyl-2-oxo-1,2-dihydroquinolin-3-yl)oxy)-N-methylacetamide] | > 100 |
| CNC(=O)COc1cc2cc(Nc3nc(N4CCC(OCCOCCOCCOCCOCCOCC(=O)N[C@H](C(=O)N5C[C@H](O)C[C@H]5C(=O)NCc5ccc(-c6scnc6C)cc5)C(C)(C)C)CC4)ncc3Cl)ccc2n(C)c1=O [compound 82, (2S,4R)-1-((S)-2-(tert-butyl)-20-((1-(5-chloro-4-((1-methyl-3-(2-(methylamino)-2-oxoethoxy)-2-oxo-1,2-dihydroquinolin-6-yl)amino)pyrimidin-2-yl)piperidin-4-yl)oxy)-4-oxo-6,9,12,15,18-pentaoxa-3-azaicosanoyl)-4-hydroxy-N-(4-(4-methylthiazol-5-yl)benzyl)pyrrolidine-2-carboxamide] | 50 to 100 |
| CNC(=O)COc1cc2cc(Nc3nc(N4CCC(OCCOCCOCCOCCOCCOCCOCC(=O)N[C@H](C(=O)N5C[C@H](O)C[C@H]5C(=O)NCc5ccc(-c6scnc6C)cc5)C(C)(C)C)CC4)ncc3Cl)ccc2n(C)c1=O [compound 83, (2S,4R)-1-((S)-2-(tert-butyl)-23-((1-(5-chloro-4-((1-methyl-3-(2-(methylamino)-2-oxoethoxy)-2-oxo-1,2-dihydroquinolin-6-yl)amino)pyrimidin-2-yl)piperidin-4-yl)oxy)-4-oxo-6,9,12,15,18,21-hexaoxa-3-azatricosanoyl)-4-hydroxy-N-(4-(4-methylthiazol-5-yl)benzyl)pyrrolidine-2-carboxamide] | 50 to 100 |
| CNC(=O)COc1cc2cc(Nc3nc(N4CCC(OCCOCCOCCOCCOCCOc5ccc6c(c5)CN(C5(C)CCC(=O)NC5=O)C6=O)CC4)ncc3Cl)ccc2n(C)c1=O (centres unmarked) [compound 84, 2-((6-((5-chloro-2-(4-((14-((2-(3-methyl-2,6-dioxopiperidin-3-yl)-1-oxoisoindolin-5-yl)oxy)-3,6,9,12-tetraoxatetradecyl)oxy)piperidin-1-yl)pyrimidin-4-yl)amino)-1-methyl-2-oxo-1,2-dihydroquinolin-3-yl)oxy)-N-methylacetamide] | 10 to 50 |
| CN1C(=O)CCc2cc(Nc3cc(N4CCC(CN(C)[C@H]5C[C@H](Oc6ccc7c(c6)C(=O)N(C6CCC(=O)NC6=O)C7=O)C5)CC4)c([N+](=O)[O-])cc3Cl)ccc21 (some centres unmarked) [compound 85, 5-((1r,3r)-3-(((1-(4-chloro-5-((1-methyl-2-oxo-1,2,3,4-tetrahydroquinolin-6-yl)amino)-2-nitrophenyl)piperidin-4-yl)methyl)(methyl)amino)cyclobutoxy)-2-(2,6-dioxopiperidin-3-yl)isoindoline-1,3-dione] | > 100 |
| CNC(=O)COc1cc2cc(Nc3nc(N4CCC(OCCOCC(=O)N[C@H](C(=O)N5C[C@H](O)C[C@H]5C(=O)NCc5ccc(-c6scnc6C)cc5)C(C)(C)C)CC4)ncc3Cl)ccc2n(C)c1=O [compound 86, (2S,4R)-1-((S)-2-(2-(2-((1-(5-chloro-4-((1-methyl-3-(2-(methylamino)-2-oxoethoxy)-2-oxo-1,2-dihydroquinolin-6-yl)amino)pyrimidin-2-yl)piperidin-4-yl)oxy)ethoxy)acetamido)-3,3-dimethylbutanoyl)-4-hydroxy-N-(4-(4-methylthiazol-5-yl)benzyl)pyrrolidine-2-carboxamide] | 50 to 100 |
| CNC(=O)COc1cc2cc(Nc3nc(N4CCC(OCCOCCOCCOCCOCCOc5ccc6c(c5)CN(C5CCC(=O)N(C)C5=O)C6=O)CC4)ncc3Cl)ccc2n(C)c1=O (centres unmarked) [compound 87, 2-((6-((5-chloro-2-(4-((14-((2-(1-methyl-2,6-dioxopiperidin-3-yl)-1-oxoisoindolin-5-yl)oxy)-3,6,9,12-tetraoxatetradecyl)oxy)piperidin-1-yl)pyrimidin-4-yl)amino)-1-methyl-2-oxo-1,2-dihydroquinolin-3-yl)oxy)-N-methylacetamide] | 50 to 100 |
| CNC(=O)COc1cc2cc(Nc3nc(N4CCC(c5cccc(OCCOCCOCCOCCOc6ccc7c(c6)CN(C6CCC(=O)NC6=O)C7=O)c5)CC4)ncc3Cl)ccc2n(C)c1=O (centres unmarked) [compound 88, 2-((6-((5-chloro-2-(4-(3-(2-(2-(2-(2-((2-(2,6-dioxopiperidin-3-yl)-1-oxoisoindolin-5-yl)oxy)ethoxy)ethoxy)ethoxy)ethoxy)phenyl)piperidin-1-yl)pyrimidin-4-yl)amino)-1-methyl-2-oxo-1,2-dihydroquinolin-3-yl)oxy)-N-methylacetamide] | 10 to 50 |
